Structures can show the parent of a compound that is named as a salt.

The results in this text go back to patent US20240239766A1, “3-AMINO PIPERIDYL SODIUM CHANNEL INHIBITORS” (Genentech, Inc., priority 2021, published 2024).

hNav1.7, sequence (Q15858 other isoform, or with tags, fused parts or gaps): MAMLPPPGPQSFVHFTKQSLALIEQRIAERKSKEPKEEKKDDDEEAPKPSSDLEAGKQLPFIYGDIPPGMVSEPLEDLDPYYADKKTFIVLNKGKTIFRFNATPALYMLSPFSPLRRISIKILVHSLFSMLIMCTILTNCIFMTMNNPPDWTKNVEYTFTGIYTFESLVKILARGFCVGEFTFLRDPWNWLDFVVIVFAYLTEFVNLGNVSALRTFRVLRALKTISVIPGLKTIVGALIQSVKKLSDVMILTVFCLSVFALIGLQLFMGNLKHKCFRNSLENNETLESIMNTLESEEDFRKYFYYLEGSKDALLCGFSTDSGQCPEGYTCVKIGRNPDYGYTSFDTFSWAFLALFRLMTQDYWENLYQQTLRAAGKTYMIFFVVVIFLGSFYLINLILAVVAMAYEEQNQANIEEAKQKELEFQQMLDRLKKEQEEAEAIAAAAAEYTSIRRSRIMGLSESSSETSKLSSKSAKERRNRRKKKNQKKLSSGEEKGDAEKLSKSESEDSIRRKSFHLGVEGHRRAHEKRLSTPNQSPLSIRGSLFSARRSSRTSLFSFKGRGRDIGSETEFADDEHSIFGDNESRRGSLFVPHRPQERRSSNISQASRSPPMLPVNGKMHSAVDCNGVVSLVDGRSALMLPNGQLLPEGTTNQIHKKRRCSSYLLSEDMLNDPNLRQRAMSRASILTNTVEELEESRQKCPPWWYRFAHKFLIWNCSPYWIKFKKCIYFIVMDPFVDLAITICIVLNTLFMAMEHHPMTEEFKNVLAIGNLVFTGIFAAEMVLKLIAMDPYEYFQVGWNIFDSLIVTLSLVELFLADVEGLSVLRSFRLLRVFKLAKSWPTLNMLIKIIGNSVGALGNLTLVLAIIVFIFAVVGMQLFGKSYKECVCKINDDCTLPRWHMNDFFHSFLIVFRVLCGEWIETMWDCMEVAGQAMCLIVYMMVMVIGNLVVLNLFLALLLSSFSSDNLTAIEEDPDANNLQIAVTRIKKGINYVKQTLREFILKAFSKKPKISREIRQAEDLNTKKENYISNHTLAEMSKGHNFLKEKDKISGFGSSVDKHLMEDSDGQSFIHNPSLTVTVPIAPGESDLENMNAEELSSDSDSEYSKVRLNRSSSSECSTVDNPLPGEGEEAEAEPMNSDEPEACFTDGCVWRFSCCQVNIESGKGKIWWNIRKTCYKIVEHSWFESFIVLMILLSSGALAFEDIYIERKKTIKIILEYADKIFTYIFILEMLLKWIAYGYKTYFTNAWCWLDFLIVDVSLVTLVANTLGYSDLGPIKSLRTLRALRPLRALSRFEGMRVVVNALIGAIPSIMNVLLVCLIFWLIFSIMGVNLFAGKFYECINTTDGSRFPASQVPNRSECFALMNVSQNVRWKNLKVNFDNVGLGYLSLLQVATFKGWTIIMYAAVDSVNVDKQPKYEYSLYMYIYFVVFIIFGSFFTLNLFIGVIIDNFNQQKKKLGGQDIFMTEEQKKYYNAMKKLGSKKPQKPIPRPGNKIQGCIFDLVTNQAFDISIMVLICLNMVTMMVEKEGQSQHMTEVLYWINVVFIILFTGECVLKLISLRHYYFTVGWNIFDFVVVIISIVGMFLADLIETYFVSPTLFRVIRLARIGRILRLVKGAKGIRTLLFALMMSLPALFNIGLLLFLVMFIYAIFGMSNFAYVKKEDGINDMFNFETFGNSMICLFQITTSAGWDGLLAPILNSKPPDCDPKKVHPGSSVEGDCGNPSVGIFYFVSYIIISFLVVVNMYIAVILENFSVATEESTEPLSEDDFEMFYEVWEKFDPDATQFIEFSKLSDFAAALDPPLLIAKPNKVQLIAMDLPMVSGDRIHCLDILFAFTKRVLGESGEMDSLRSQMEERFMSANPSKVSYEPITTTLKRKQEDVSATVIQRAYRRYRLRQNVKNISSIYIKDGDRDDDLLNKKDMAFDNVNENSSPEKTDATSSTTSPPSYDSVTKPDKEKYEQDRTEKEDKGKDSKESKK

For the assay, the target named is hNav1.7 (Homo sapiens (Human), UniProt Q15858). Put plainly: Patch voltage clamp electrophysiology assay (EP), Syncropatch 384PE, CHO cells expressing Nav1.7. The class given is cell-based. The conditions noted are these: holding potential −50 mV; 7.5 min compound incubation; read-out: EP SP hNav1.7 EVO (IC50). An excerpt:
Example 101c: Electrophysiological Assay (EP) (In Vitro Assay)
Patch voltage clamp electrophysiology allows for the direct measurement and quantification of block of voltage-gated sodium channels (NaV's), and allows the determination of the time- and voltage-dependence of block which has been interpreted as differential binding to the resting, open, and inactivated states of the sodium channel (Hille, B., Journal of General Physiology (1977), 69: 497-515).
The following voltage clamp electrophysiology studies are performed on representative compounds using cells heterologously expressing Nav1.7 or Nav1.5 channels. cDNAsfor Nav1.7 (NM_002977) and Nav1.5 (AC137587) are stably expressed in Chinese Hamstr Ovary (CHO) cells and CHL (Chinese Hamster Lung) cells respectively. Sodium currents are measured in the whole-cell configuration using Syncropatch 384PE (Nanlon Technologies, Germany). 1NPC®-384 chips with custom medium resistance and single hole mode are used. Internal solution consists of (in mM): […], 10 CsCl, 20 EGTA, and 10 Hepes (pH adjusted to 7.2); and external solution contains (in mM): 60 NMDG, 80 NaCl, 4 KCl, 1 MgCl2, 2 CaCl2), 2 D-Glucose monohydrate, 10 Hepes (pH adjusted to 7.4 with NaOH).
After system flushing, testing compounds are dissolved in external solution containing 0.1% Pluronic F-127. The chip is moved into the measuring head and the instrument primes the chip with external and internal solutions. 10 μl cells are added to the chip from a cell hotel, and a negative pressure of −50 mBar is applied to form a seal. Following treatment with seal enhancer solution and wash-off with external solution, negative pressure of −250 mbar is applied for 1 second to achieve the whole-cell configuration, followed by three washing steps in external solution. 20 μl of compounds is added to 40 μl in each well (1:3 dilution of compounds), and after mixing, 20 μl is removed so the volume is retained at 40 ul. After approximately 13 minutes recordings, 20 μl/well of 2 uM TTX, or 333 uM Tetracaine (for Nav1.5) is added to achieve full block.
For voltage protocol, an holding potential of −50 mV is applied during the whole experiment. A depolarizing step is applied to −10 mV for 10 ms, followed by a hyperpolarization step to −150 mV for 20 ms to allow channel recovery from inactivation. A second depolarizing step is applied from −150 mV to −10 mV for 10 ms, where currents are measured to derive blocking effects of compounds. Inhibition is determined based on 7.5 min of compound incubation.
(In general: Patch clamp records ionic current or voltage across a cell membrane.)
For `CN(C)[C@]1(CCc2cccc(C3CC3)c2)CCCN(c2cc(F)c(S(=O)(=O)Nc3ccncn3)c(F)c2)C1` (single isomer, unassigned) [Example 89, formate], the IC50 was 567 nM. As for `CN(C)[C@@]1(CCc2cccc(Cl)c2)CCCN(c2cc(F)c(S(=O)(=O)Nc3ccncn3)c(F)c2)C1` (single isomer, unassigned) [Example 90, formate], the figure is 4460 nM; as for `CN(C)[C@]1(CCc2cccc(Cl)c2)CCCN(c2cc(F)c(S(=O)(=O)Nc3ccncn3)c(F)c2)C1` (single isomer, unassigned) [Example 91, formate], 11.6 nM.

As for `CN[C@]1(CCc2cccc(C(F)(F)F)c2)CCCN(c2ccc(S(=O)(=O)Nc3ccncn3)c(F)c2)C1` [Example 3, (R)-2-Fluoro-4-(3-(methylamino)-3-(3-(trifluoromethyl)-phenethyl)piperidin-1-yl)-N-(pyrimidin-4-yl)benzenesulfonamide], the IC50 turned out to be 21.5 nM. `Cc1cc(N2CCC[C@](CCc3cccc(C(F)(F)F)c3)(N(C)C)C2)cc(F)c1S(=O)(=O)Nc1ccncn1` [Example 9, (S)-4-(3-(Dimethylamino)-3-(3-(trifluoromethyl)phenethyl)-piperidin-1-yl)-2-fluoro-6-methyl-N-(pyrimidin-4-yl)benzenesulfonamide]: the half-maximal inhibitory concentration (IC50) is 597 nM. Regarding `Cc1cc(N2CCC[C@@](CCc3cccc(C(F)(F)F)c3)(N(C)C)C2)cc(F)c1S(=O)(=O)Nc1ccncn1` [Example 10, (R)-4-(3-(Dimethylamino)-3-(3-(trifluoromethyl)-phenethyl)piperidin-1-yl)-2-fluoro-6-methyl-N-(pyrimidin-4-yl)benzenesulfonamide], the IC50 is 2.66 nM. For the compound `CN1CCC(CN(C)C2(CCc3cccc(C(F)(F)F)c3)CCCN(c3ccc(S(=O)(=O)Nc4ccncn4)c(F)c3)C2)C1` (centres unmarked) [Example 31, 2-Fluoro-4-(3-(methyl((1-methylpyrrolidin-3-yl)methyl)amino)-3-(3-(trifluoromethyl)phenethyl)piperidin-1-yl)-N-(pyrimidin-4-yl)benzenesulfonamide formate], the IC50 stood at 8.59 nM. In the case of `CN1CC(N(C)[C@]2(CCc3cccc(C(F)(F)F)c3)CCCN(c3ccc(S(=O)(=O)Nc4ccncn4)c(F)c3)C2)C1` [Example 35, (R)-2-Fluoro-4-(3-(methyl(1-methylazetidin-3-yl)amino)-3-(3-(trifluoromethyl)phenethyl)piperidin-1-yl)-N-(pyrimidin-4-yl)benzenesulfonamide] it was 40.7 nM; in that of `CN(C)[C@@]1(CCc2cccc(C(F)(F)F)c2Cl)CCCN(c2cc(F)c(S(=O)(=O)Nc3ccncn3)c(F)c2)C1` [Example 40, (S)-4-(3-(2-Chloro-3-(trifluoromethyl)phenethyl)-3-(dimethylamino)piperidin-1-yl)-2,6-difluoro-N-(pyrimidin-4-yl)benzenesulfonamide], 531 nM. As for `CN(C)[C@]1(CCc2cc(Cl)cc(C(F)(F)F)c2)CCCN(c2cc(F)c(S(=O)(=O)Nc3ccncn3)c(F)c2)C1` [Example 43, (R)-4-(3-(3-Chloro-5-(trifluoromethyl)phenethyl)-3-(dimethylamino)piperidin-1-yl)-2,6-difluoro-N-(pyrimidin-4-yl)benzenesulfonamide], the figure is 0.443 nM; as for `CN(C)[C@@]1(C[C@@H]2CCc3ccc(C(F)(F)F)cc32)CCCN(c2cc(F)c(S(=O)(=O)Nc3ccncn3)c(F)c2)C1` [Example 46, 4-((R)-3-(Dimethylamino)-3-(((S)-6-(trifluoromethyl)-2,3-dihydro-1H-inden-1-yl)methyl)piperidin-1-yl)-2,6-difluoro-N-(pyrimidin-4-yl)benzenesulfonamide formate], 1320 nM.

For the compound `CN(C)[C@@]1(C[C@H]2CCc3ccc(C(F)(F)F)cc32)CCCN(c2cc(F)c(S(=O)(=O)Nc3ccncn3)c(F)c2)C1` [Example 47, 4-((R)-3-(Dimethylamino)-3-(((R)-6-(trifluoromethyl)-2,3-dihydro-1H-inden-1-yl)methyl)piperidin-1-yl)-2,6-difluoro-N-(pyrimidin-4-yl)benzenesulfonamide formate], the IC50 is 307 nM. In the case of `CN(C)[C@]1(C[C@H]2CCc3ccc(C(F)(F)F)cc32)CCCN(c2cc(F)c(S(=O)(=O)Nc3ccncn3)c(F)c2)C1` [Example 48, 4-((S)-3-(Dimethylamino)-3-(((R)-6-(trifluoromethyl)-2,3-dihydro-1H-inden-1-yl)methyl)piperidin-1-yl)-2,6-difluoro-N-(pyrimidin-4-yl)benzenesulfonamide formate] it was 1.55 nM; in that of `CN(C)[C@]1(C[C@@H]2CCc3ccc(C(F)(F)F)cc32)CCCN(c2cc(F)c(S(=O)(=O)Nc3ccncn3)c(F)c2)C1` [Example 49, 4-((S)-3-(Dimethylamino)-3-(((S)-6-(trifluoromethyl)-2,3-dihydro-1H-inden-1-yl)methyl)piperidin-1-yl)-2,6-difluoro-N-(pyrimidin-4-yl)benzenesulfonamide formate], 11.1 nM.

With `CN(C)[C@@]1(CCC2CCCCC2)CCCN(c2cc(F)c(S(=O)(=O)Nc3ccncn3)c(F)c2)C1` [Example 92, (S)-4-(3-(2-Cyclohexylethyl)-3-(dimethylamino)piperidin-1-yl)-2,6-difluoro-N-(pyrimidin-4-yl)benzenesulfonamide formate], the concentration for half-maximal inhibition (IC50) was found to be 3.82 nM. In the case of `CN(C)[C@]1(CCC2CCCCC2)CCCN(c2cc(F)c(S(=O)(=O)Nc3ccncn3)c(F)c2)C1` [Example 93, (R)-4-(3-(2-Cyclohexylethyl)-3-(dimethylamino)piperidin-1-yl)-2,6-difluoro-N-(pyrimidin-4-yl)benzenesulfonamide formate] it was 245 nM; in that of `CN(C)[C@@]1(C2CC(c3cccc(C(F)(F)F)c3)C2)CCCN(c2cc(F)c(S(=O)(=O)Nc3ccncn3)c(F)c2)C1` (stereo partly drawn) [Example 94, 4-((R)-3-(Dimethylamino)-3-((1r,3R)-3-(3-(trifluoromethyl)phenyl)-cyclobutyl)piperidin-1-yl)-2,6-difluoro-N-(pyrimidin-4-yl)benzenesulfonamide], 127 nM. In the case of `CN(C)C1(C2CC(c3cccc(C(F)(F)F)c3)C2)CCCN(c2cc(F)c(S(=O)(=O)Nc3ccncn3)c(F)c2)C1` (centres unmarked) [Example 95, 4-(3-(Dimethylamino)-3-(3-(3-(trifluoromethyl)phenyl)-cyclobutyl)piperidin-1-yl)-2,6-difluoro-N-(pyrimidin-4-yl)benzenesulfonamide], the half-inhibitory concentration (IC50) was determined as 14.1 nM.

Regarding `CN(C)[C@]1(C2CC(c3cccc(C(F)(F)F)c3)C2)CCCN(c2cc(F)c(S(=O)(=O)Nc3ccncn3)c(F)c2)C1` (stereo partly drawn) [Example 96, 4-((S)-3-(Dimethylamino)-3-((1s,3R)-3-(3-(trifluoromethyl)-phenyl)cyclobutyl)piperidin-1-yl)-2,6-difluoro-N-(pyrimidin-4-yl)benzenesulfonamide], the half-maximal inhibitory concentration (IC50) came out at 1.81 nM. As for `CN(C)[C@@]1(CCc2cccc(C(F)(F)F)n2)CCCN(c2cc(F)c(S(=O)(=O)Nc3ccncn3)c(F)c2)C1` [Example 97, (R)-4-(3-(Dimethylamino)-3-(2-(6-(trifluoromethyl)pyridin-2-yl)ethyl)-piperidin-1-yl)-2,6-difluoro-N-(pyrimidin-4-yl)benzenesulfonamide formate], the IC50 is 10000 nM. Consider `CN(C)[C@]1(CCc2cccc(C(F)(F)F)n2)CCCN(c2cc(F)c(S(=O)(=O)Nc3ccncn3)c(F)c2)C1` [Example 98, (S)-4-(3-(Dimethylamino)-3-(2-(6-(trifluoromethyl)pyridin-2-yl)ethyl)piperidin-1-yl)-2,6-difluoro-N-(pyrimidin-4-yl)benzenesulfonamide formate], for which the IC50 was determined as 62.5 nM.

Take `CN(C)[C@@]1(CC2CCCC2)CCCN(c2cc(F)c(S(=O)(=O)Nc3ccncn3)c(F)c2)C1` [Example 99, (R)-4-(3-(Cyclopentylmethyl)-3-(dimethylamino)piperidin-1-yl)-2,6-difluoro-N-(pyrimidin-4-yl)benzenesulfonamide]: the IC50 was 8950 nM. `CN(C)[C@]1(CC2CCCC2)CCCN(c2cc(F)c(S(=O)(=O)Nc3ccncn3)c(F)c2)C1` [Example 100, (S)-4-(3-(Cyclopentylmethyl)-3-(dimethylamino)piperidin-1-yl)-2,6-difluoro-N-(pyrimidin-4-yl)benzenesulfonamide]: the concentration for half-maximal inhibition (IC50) is 130 nM.

Broadly, the IC50 is the midpoint of a concentration-inhibition curve.
